From publication PMC6044831 (ACS Omega, 2018)

Assay: Storage stability of [^125I] 5 in the refrigerator
Format: physicochemical
Conditions: 4 °C, storage time over which compound found stable

O=CCCCNC(=O)c1ccc([125I])cc1 [[^125I] 5]
stable in the refrigerator (no hydrolysis): more than 6 months
